# Reference: US12492403B2, “Aptamers and the use thereof in the treatment of cancer” (FUNDACIÓN PARA LA INVESTIGACIÓN BIOMÉDICA DEL HOSPITAL …, priority 2018, dated 2025)
# How the values were obtained:
# [1] = test system: orthotopic xenograft of MDA-MB-231 cells; experiment: In vivo efficacy in orthotopic xenograft mouse model; parameters: species or system nude mice
# Procedure: FIGS. 19A-19D. In vivo efficacy of apMNKQ2 in an orthotopic xenograft mouse model of MDA-MB-231 cells. (A) Evolution of the weight of the mouse over days of treatment with apMNKQ2 (FIG. 19A). (B) Relative tumor volume (RTV) over days of treatment (FIG. 19B). (C) Tumor weight after sacrificing the animal (FIG. 19C). (D) Immunohistochemical determination of proliferating cell nuclear antigen (PCNA) levels (FIG. 19D). The analysis of the positive nuclei was performed with the imageJ program. The boxes represent the mean±the maximum and minimum of 5-8 animals (*p<0.05 with respect to the control group).
# FIGS. 20A-20D. Activation of apoptosis and expression of EMT markers in tumors from the mice with an orthotopic xenograft of MDA-MB-231 cells of FIG. 19. Immunodetection with specific antibodies by SDS-PAGE 12% of “cleaved” PARP ([…]), a-Spectrin (FIG. 20B) and the anti-apoptotic protein MCL1 (FIG. 20C) in tissue of mice treated with 1.8 mg/Kg of apMNKQ2 or with the vehicle. Expression levels of occludin (epithelial status marker) and FSP1 (mesenchymal marker) in tissue of mice treated with 1.8 mg/kg of apMNKQ2 or with the vehicle using qPCR (FIG. 20D). The values obtained were normalized with respect to β-actin. The boxes represent the mean±the maximum and the minimum of 4-5 animals (*p<0.05, **p<0.01 with respect to the control group).
# For transfection in the in vivo model, the in vivo-jetPEI® transfection system (Polyplus, France) was used according to the manufacturer's instructions. The aptamer and jetPEI® reagent were separately diluted in glucose for the subsequent addition of the jetPEI® complex to that of the aptamer, such that the final glucose concentration is 5%. It was added to the cultures or injected into animals according to the assay.
# Total RNA was obtained from cells using the NucleoZOL reagent ([…]-NAGEL, Germany) according to the manufacturer's instructions. Obtained RNA purity and integrity analyses were performed using the Experion™ RNA HighSens Analysis Kit chip (BioRad, USA). For the quantitative analysis of the mRNA levels, cDNAs were obtained with the SensiFAST™ cDNA synthesis kit (Bioline, United Kingdom) and real-time PCR was carried out in an IQ5 thermocycler (BioRad, USA) with the FastGene IC Green 2×qPCR Universal Mix kit (NIPPON Genetics, Germany).
# In vivo assays were performed with nude mice inoculated with MDA-MB-231 cells and orthotopic tumors were generated. When these tumors reached a volume of 100 mm^3, the mice were randomly distributed into two groups of 9 animals. The treated group (1.8 mg/kg) was intravenously injected with 100 μl of 5% glucose containing 46 μg (5 nmol) of apMNKQ2 and 5.6 μl of jetPEI® transfectant (N/P ratio of 6) three times a week. The control group was injected with the 5% glucose solution containing the same volume of in vivo-jetPEI® reagent and aptamer buffer. As monitoring parameters, the tumor volume, assuming they are ellipsoids, and the weight of the animals were measured. At 18 days, the animals were sacrificed and the tumors were weighed and divided into two fragments, one to be frozen and another for fixing and inclusion in paraffin.
# The immunohistochemical determination of the proliferating cell nuclear antigen (PCNA), sections of the paraffinized samples were made and they were then deparaffinized and rehydrated. The antigen was unmasked by incubating the sections in a 10 mM citrate buffer in a pressure cooker at maximum pressure for 2 minutes. After performing two quick washes with distilled water and two 5-minute washes with TBS, the sections were incubated in a blocking solution (3% fetal bovine serum in TBS with 0.05% triton X-100) for 30 minutes at room temperature. The samples were then incubated with the primary antibody PCNA (Santa Cruz Biotechnology, USA) at a dilution of 1:100 at room temperature overnight. […]
# 4T1 cells = experiment: Transwell invasion assay in 4T1 cells; format: cell-based, mouse; conditions: 500 nM, 48 h invasion
# Procedure: FIG. 21A-21E. In vivo efficacy of apMNKQ2 in a mouse metastatic model with an orthotopic xenograft of 4T1 cells. (A) Effect of apMNKQ2 aptamer on the proliferation of 4T1 cells (mouse breast tumor line). 4T1 cells were seeded in p96 at a density of 1.5×10^3 cells/well. […] The graph (FIG. 21A) represents the means±SEM of 3 independent experiments. (B) Effect of apMNKQ2 aptamer on migration and invasion of 4T1 cells. Cells were seeded in p6 at a density of 2×10^5 cells/well and transfected with 500 nM apMNKQ2 at 24 hours. […] At 24 hours (migration) or 48 h (invasion), the transwell membranes were stained with Hoechst and the cells that had passed through the fluorescence microscopy were quantified. […] The number of metastases is analyzed by the reverse staining method (with Chinese ink) and the metastases grouped according to their size in four groups (0.5, 1, 2 and >2). […]
# Cell migration and invasion assays were performed using transwell (Corning, USA). […] After that time, they were collected, counted, and reseeded 4×10^4 cells in 300 μl of a serum-free complete medium inside the transwell (migration) or a transwell on which a layer of 100 μL of Matrigel (Corning, USA) (invasion) had previously been polymerized. […] Finally, two washes in PBS were performed, and 5 photographs of each membrane of the transwell were taken using a fluorescence microscope (Olympus IX70). […]
# [2] = tumors of mice treated with 1.8 mg/kg vs vehicle
substance,measurement,setting,value
"5′TGGGGTGGGCGGGCGGGGGTGGGGGTGGT-3′ (DNA, backbone and methylation of C not given here; further chemistry not fully specified) [apMNKQ2]",decrease of cell proliferation in the tumor (PCNA immunohistochemistry) with respect to the control group,"[1]; 1.8 mg/kg intravenously three times a week, 18 days",50%
same,decrease of the weight of the tumor after sacrificing the animals,"[1]; 1.8 mg/kg intravenously three times a week, 18 days, not statistically significant",27%
same,weight of the mice,"[1]; 1.8 mg/kg intravenously with jetPEI three times a week, 18 days",no changes
same,relative size of the tumor (relative tumor volume) vs control group,"[1]; intravenous with jetPEI three times a week, statistically significant at 7 and 18 days of treatment",smaller
same,"apoptosis in tumors (cleaved PARP, α-spectrin, MCL1 immunodetection)",[1]; tumors of mice treated with 1.8 mg/Kg vs vehicle,apoptotic effect
same,mRNA levels of the mesenchymal marker FSP1 in tumors (qPCR),[1]; [2],decrease (although not significant)
same,occludin epithelial marker expression in tumors (qPCR),[1]; [2],increases significantly
same,invasion of 4T1 cells,4T1 cells,significantly decrease
